According to patent US9701680B2, “Pyrimidine and pyridine compounds and their usage” (HUTCHISON MEDIPHARMA LIMITED, priority 2013, dated 2017):
Where two headings read alike, the source gives them in different places.

Experiments:
[1] = test system: KG-1; test: Cellular Proliferation Assay (Cell Counting Kit-8), KG-1; type: cell-based; conditions: Homo sapiens; KG-1 cells, 72 hours; read-out: KG1 IC50
Experimental: (§1) Example 26: Cellular Proliferation Assay
(§2) • 1. Cell Line • KG-1 (ATCC Accession No. CCL-246), • SNU-16 (ATCC Accession No. CRL-5974), • RT-112 (ECACC Accession No. 85061106) • 2. Assay Protocol • FGFR related cancer cell proliferation is measured in 96-well plates using Cell Counting Kit-8 (Dojindo CK04-13). • Seed 30000 cells/well of KG1, 5000 cells/well of SNU16, and 1000 cells/well of RT112 in a volume of 100 μL/well in growth media. • After 24 hours, dilute the test compound to 10, 3.3, 1.1, 0.37, 0.12, 0.04, 0.013, 0.004 μM, keeping the DMSO concentration at 5%. • Add 10 μL of 8-point compound series to the wells of culturing cells. • Incubate at 37° C. and 5% CO2 for 72 hours • Add 10 μL/well of CCkit8 and incubate at 37° C. and 5% CO2 for an hour • Detect the optical density of each well at 450 nm on Labsystems Multiskan K3. • 3. Data Analysis
(§3) [formula] Note: • ODcompound well represents the optical density of cells treated with compound. • ODcell well represents the optical density of cells without compounds treatment.(only 0.5% DMSO) • ODcontrol well represents the optical density of culture media background • IC50: determined with add-in software for Microsoft Excel, XLfit™ (version 2.0) from ID Business Solutions (Guildford, UK).

[2] = test system: SNU-16; test: Cellular Proliferation Assay (Cell Counting Kit-8), SNU-16; type: cell-based; conditions: Homo sapiens; SNU-16 cells, 72 hours
Experimental: as §1, §2, §3

[3] = molecular target: FGFR3 kinase (Homo sapiens, UniProt P22607); test: Z-Lyte Kinase Assay of FGFR3; type: biochemical
Experimental: Example 25: Z-Lyte Kinase Assay of FGFR3
• 1. Materials and Reagents:
• 2. Reaction Steps: Plate Map
• 3. […] The final concentrations are 1, 0.33, 0.11, 0.037, 0.012, 0.004, 0.0014, 0.00046 μM, and the final concentration of DMSO is 2%. • 3) Kinase/Peptide Mixture (P/K solution): Prepare Kinase/Peptide Mixture by diluting the kinase to 0.7 μg/ml and the Z-LYTE™ Tyr 4 peptide to 4 μM in 1.33× Kinase Buffer. Mix gently by pipetting. • 4) Phospho-peptide Solution (PP solution): Add 0.4 μl of Z-LYTE™ Tyr 4 Phospho-peptide to 99.6 μl of 1.33× Kinase Buffer. • 5) ATP Solution: Prepare ATP Solution by diluting the 10 mM of ATP in 1.33× Kinase Buffer to 300 uM. • 6) Development Solution: Dilute Development Reagent B with Development Buffer as 1:128. • 4. […] Shake the plate for 30 Sec and centrifuge (1500 rpm, 1 min). • Seal the plate to protect from the light and incubate the plate for 1 hour at RT (25-30° C.). • 2) Development reaction • Add 5 μl of the Development solution to all wells. • Shake the plate for 30 Sec and centrifuge (1500 rpm, 1 min). • Seal the plate to protect from the light and incubate the plate for 1 hour at RT (25-30° C.). • 3) Stop and Read • Add 5 μl of the Stop reagent to all wells. • Shake the plate for 30 Sec and centrifuge (1500 rpm, 1 min). • Measure the value of Coumarin (Ex400 nm, Em445 nm) and fluorescein (Ex400 nm, Em520 nm), respectively. • 5. Data Analysis Emission Ratio(ER)=Coumarin Emission (445 nm)/Fluorescein Emission (520 nm) % Phosphorylation=1−[ER×C3520nm-C3445nm]/[(C1445nm-C3445nm)+ER×(C3520nm−C1520nm)] Inhibition rate (IR)=1−% Photest Cpd/% PhoC2 • 6. IC50 Value: determined with add-in software for Microsoft Excel, XLfit™ (version 2.0) from ID Business Solutions (Guildford, UK)

[4] = test system: RT-112; test: Cellular Proliferation Assay (Cell Counting Kit-8), RT-112; type: cell-based; conditions: Homo sapiens; RT-112 cells, 72 hours
Experimental: as §1, §2, §3

[5] = molecular target: Recombinant human FGFR2 (Homo sapiens, UniProt P21802); test: Transcreener Kinase Assay of FGFR2; type: biochemical
Experimental: Example 24: Transcreener Kinase Assay of FGFR2
• 1. […] Prepare Solution • Test compounds were solved in DMSO and were diluted with assay buffer to 5 folds of final concentration keeping the DMSO concentration at 5%. Further dilution are needed to make final concentrations are at 1, 0.33, 0.11, 0.037, 0.012, 0.004, 0.0014, 0.0005 μM; (the final concentration of DMSO is 1%). • Enzyme/Substrate stock Preparation: Recombinant human FGFR2 and Poly E4Y are both diluted in assay buffer. The final concentration is 0.3 ng/μL for FGFR2 and 62.5 ng/μL for Poly E4Y. The mixture is being kept in ice before use; • Prepare ATP Diluents, 10 mM ATP is diluted in assay buffer, the final concentration is 25 μM; • Prepare ADP Diluents: diluted ADP (500 μM) in assay buffer, the final concentration is 25 μM; • Prepare ATP standard curve stock as following:
• 3. Enzymatic Reaction • In a 96-well plate, add 5 μL of deluted solution of test compound or control solution. (positive control: 5 μL of 5% DMSO; negative control: 5 μL of 500 mM EDTA) into desired wells respectively; • Add 10 μL of Enzyme/Substrate stock into each well; • Add 10 μL of ATP Diluents to initiate the enzyme reaction and vortex the plate immediately on a plate shaker; • For the wells to make standard curve, add 5 μL of 5% DMSO, 10 μL of assay buffer and 10 μL of ATP standard curve stock. • Incubate the plate for 45 min at 28° C. on a plate shaker in a low speed. • 4. Stoping Reaction and Detecting ADP • Detection Mix Preparation: The mixture is made by dilution with MilliQ water; as following: ADP Alexa633 tracer (1:100), ADP antibody (1:158), and stop & detect buffer (1:10); • Tracer Only control Preparation: The mixture is made by dilution with MilliQ water; as following: ADP Alexa633 tracer (1:100), and stop & detect buffer (1: 10) • No Tracer control Preparation: stop & detect buffer is diluted with MilliQ water; by 10 fold. • Add 25 μL of detection mix, Tracer Only control and No Tracer control into corresponding wells, respectively; • Incubate at 28° C. for 1 h, on a plate shaker in a low speed; • Measure florescence polarization (mP) on TECAN F500. Excitation wavelength: 610 nm, Emission wavelength: 670 nm. • 5. Data Analysis
(§4) [formula] Note: • [ADP] in Compound well represents the ADP concentration in test compound well. • [ADP] in Positive control well represents the ADP concentration in 5% DMSO well • Conversion of mP value to ADP concentration is calculated based on the formula which determined by standard curve. And mP value is measured by following the instruction provided by BellBrook Labs. (www.bellbrooklabs.com). • 6. IC50: determined with add-in software for Microsoft Excel, XLfit™ (version 2.0) from ID Business Solutions (Guildford, UK).

[6] = molecular target: Recombinant human FGFR1 (Homo sapiens, UniProt P11362); test: Transcreener Kinase Assay of FGFR1; type: biochemical
Experimental: • 1. […] Prepare Solution • Test compounds were solved in DMSO and were diluted with assay buffer to 5 folds of final concentration keeping the DMSO concentration at 5%. Further dilution are needed to make final concentrations are at 1, 0.33, 0.11, 0.037, 0.012, 0.004, 0.0014, 0.0005 μM; (the final concentration of DMSO is 1%). • Enzyme/Substrate stock Preparation: Recombinant human FGFR1 and Poly E4Y are both diluted in assay buffer.
• 3. Enzymatic Reaction • In a 96-well plate, add 5 μL of diluted solution of test compound or control solution. (positive control: 5 μL of 5% DMSO; negative control: 5 μL of 500 mM EDTA) into desired wells respectively; • Add 10 μL of Enzyme/Substrate stock into each well; • Add 10 μL of ATP Diluents to initiate the enzyme reaction and vortex the plate immediately on a plate shaker; • For the wells to make standard curve, add 5 μL of 5% DMSO, 10 μL of assay buffer and 10 μL of ATP standard curve stock. • Incubate the plate for 45 min at 28° C. on a plate shaker in a low speed. • 4. […] Excitation wavelength: 610 nm, Emission wavelength: 670 nm. • 5. Data Analysis
as §4

Sequence of Recombinant human FGFR1 (P11362 22-822): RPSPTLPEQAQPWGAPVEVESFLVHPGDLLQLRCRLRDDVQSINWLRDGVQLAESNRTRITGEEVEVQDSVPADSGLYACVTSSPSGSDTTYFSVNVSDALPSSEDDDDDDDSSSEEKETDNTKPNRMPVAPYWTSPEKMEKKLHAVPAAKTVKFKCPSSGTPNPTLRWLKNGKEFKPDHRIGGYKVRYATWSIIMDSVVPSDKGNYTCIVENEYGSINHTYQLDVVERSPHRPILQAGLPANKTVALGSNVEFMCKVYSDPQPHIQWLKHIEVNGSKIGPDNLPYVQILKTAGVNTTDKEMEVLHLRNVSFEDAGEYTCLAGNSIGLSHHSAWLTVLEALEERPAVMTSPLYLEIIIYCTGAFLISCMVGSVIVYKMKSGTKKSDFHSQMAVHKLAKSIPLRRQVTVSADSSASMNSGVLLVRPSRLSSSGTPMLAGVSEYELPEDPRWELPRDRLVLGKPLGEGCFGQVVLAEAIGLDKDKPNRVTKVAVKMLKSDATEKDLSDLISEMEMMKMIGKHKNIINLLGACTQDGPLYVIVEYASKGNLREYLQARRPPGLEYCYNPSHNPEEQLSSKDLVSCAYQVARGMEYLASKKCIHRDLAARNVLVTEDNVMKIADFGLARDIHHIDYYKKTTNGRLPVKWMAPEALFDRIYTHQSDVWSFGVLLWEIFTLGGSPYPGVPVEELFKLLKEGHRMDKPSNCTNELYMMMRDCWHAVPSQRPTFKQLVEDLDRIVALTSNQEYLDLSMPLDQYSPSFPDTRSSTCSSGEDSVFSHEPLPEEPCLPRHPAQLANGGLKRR
Sequence of FGFR3 kinase (P22607 23-806): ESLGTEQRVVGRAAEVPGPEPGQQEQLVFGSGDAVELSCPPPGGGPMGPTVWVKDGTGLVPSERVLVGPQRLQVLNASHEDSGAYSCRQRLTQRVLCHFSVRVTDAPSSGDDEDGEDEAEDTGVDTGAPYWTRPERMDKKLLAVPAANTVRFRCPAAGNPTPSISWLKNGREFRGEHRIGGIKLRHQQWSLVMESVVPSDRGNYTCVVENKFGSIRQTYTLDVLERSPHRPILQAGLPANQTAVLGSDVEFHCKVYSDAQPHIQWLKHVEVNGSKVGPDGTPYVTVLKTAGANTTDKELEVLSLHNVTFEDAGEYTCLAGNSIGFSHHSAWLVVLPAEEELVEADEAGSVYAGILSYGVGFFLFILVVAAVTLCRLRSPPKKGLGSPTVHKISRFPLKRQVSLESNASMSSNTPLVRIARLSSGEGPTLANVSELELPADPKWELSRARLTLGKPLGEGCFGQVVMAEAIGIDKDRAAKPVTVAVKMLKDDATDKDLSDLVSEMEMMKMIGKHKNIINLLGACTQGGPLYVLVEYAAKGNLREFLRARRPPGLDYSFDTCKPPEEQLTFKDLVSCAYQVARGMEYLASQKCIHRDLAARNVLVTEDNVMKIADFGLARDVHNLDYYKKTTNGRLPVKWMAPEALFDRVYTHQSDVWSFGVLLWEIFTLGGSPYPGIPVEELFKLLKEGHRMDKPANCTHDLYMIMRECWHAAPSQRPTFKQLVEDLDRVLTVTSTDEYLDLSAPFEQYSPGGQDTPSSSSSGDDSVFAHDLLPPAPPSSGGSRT
Sequence of Recombinant human FGFR2 (P21802 22-821): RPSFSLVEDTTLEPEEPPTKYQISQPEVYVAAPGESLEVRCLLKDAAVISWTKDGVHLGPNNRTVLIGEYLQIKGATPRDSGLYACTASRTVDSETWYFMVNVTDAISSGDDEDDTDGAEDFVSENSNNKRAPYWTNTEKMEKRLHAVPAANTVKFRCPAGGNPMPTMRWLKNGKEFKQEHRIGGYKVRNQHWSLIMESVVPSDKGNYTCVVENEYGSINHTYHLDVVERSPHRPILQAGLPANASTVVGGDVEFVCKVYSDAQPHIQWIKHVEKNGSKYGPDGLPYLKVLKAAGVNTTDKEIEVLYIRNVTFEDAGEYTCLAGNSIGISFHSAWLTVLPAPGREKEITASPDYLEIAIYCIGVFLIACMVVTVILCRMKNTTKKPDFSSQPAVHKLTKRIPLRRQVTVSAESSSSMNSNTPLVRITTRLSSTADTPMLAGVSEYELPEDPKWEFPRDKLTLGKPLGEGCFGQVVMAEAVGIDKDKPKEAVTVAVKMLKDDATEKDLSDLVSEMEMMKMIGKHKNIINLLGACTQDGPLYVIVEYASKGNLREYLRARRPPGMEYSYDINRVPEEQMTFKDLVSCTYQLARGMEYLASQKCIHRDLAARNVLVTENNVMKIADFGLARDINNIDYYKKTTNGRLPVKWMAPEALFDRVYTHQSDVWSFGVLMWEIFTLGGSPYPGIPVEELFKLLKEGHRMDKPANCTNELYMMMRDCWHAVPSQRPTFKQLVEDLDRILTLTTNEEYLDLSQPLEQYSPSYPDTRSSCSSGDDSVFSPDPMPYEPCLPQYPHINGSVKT

Row | IC50 [2] | IC50 ([3]; Z-lyte) | IC50 ([5]; FP) | IC50 ([6]; FP) | IC50 [3] | IC50 ([5]; read-out: FGFR2 (FP) IC50) | IC50 ([6]; read-out: FGFR1 (FP) IC50) | Compound | IC50 [1] | IC50 [4]
1 | 23 nM | 26 nM | 12 nM | 29 nM |  |  |  | CNC(=O)c1cc(C#Cc2cnc(Nc3ccc(N4C[C@@H](C)N[C@@H](C)C4)c(OC)c3)nc2)c(F)c(OC)c1 [Compound 306] | 100 nM | 16 nM
2 | 21 nM |  |  |  | 21 nM | 23 nM | 20 nM | CNC(=O)c1cc(COc2cnc(Nc3cnc(N4C[C@@H](C)N[C@@H](C)C4)nc3)nc2)c(Cl)c(OC)c1 [Compound 276] | 83 nM | 140 nM
3 | 9 nM |  |  |  | 14 nM | 11 nM | 16 nM | CNC(=O)c1cc(COc2cnc(Nc3cnn(C[C@@H]4COC(C)(C)O4)c3)nc2)c(F)c(OC)c1 [Compound 248] | 6 nM | 21 nM
4 | 7 nM | 16 nM | 18 nM | 27 nM |  |  |  | CCN1CCC(c2ccc(Nc3ncc(OCc4cc(C(=O)NC)cc(OC)c4F)cn3)cc2OC)CC1 [Compound 280] | 191 nM | 29 nM
5 | 14 nM |  |  |  | 6 nM | 5 nM | 5 nM | CNC(=O)c1cc(COc2cnc(Nc3ccc(N4CCN(C)CC4)nc3)nc2)c(Cl)c(OC)c1 [Compound 263] | 7 nM | 28 nM
6 | 32 nM |  |  |  | 10 nM | 8 nM | 8 nM | CNC(=O)c1cc(CCc2cnc(Nc3ccc(NC[C@@H](C)N)cc3)nc2)c(Cl)c(OC)c1 [Compound 92] | 90 nM | 87 nM
7 | 28 nM |  |  |  | 23 nM | 16 nM | 34 nM | CNC(=O)c1cc(COc2cnc(Nc3ccc(N4CCOCC4)nc3)nc2)c(Cl)c(OC)c1 [Compound 247] | 42 nM | 57 nM
8 | 6 nM |  |  |  | 10 nM | 11 nM | 23 nM | CCN1[C@H](C)CN(c2ccc(Nc3ncc(CCc4cc(C(=O)NC)cc(OC)c4Cl)cn3)cn2)C[C@@H]1C [Compound 159] | 26 nM | 21 nM
9 | 10 nM |  |  |  | 15 nM | 14 nM | 38 nM | CNC(=O)c1cc(COc2cnc(Nc3cnn(C[C@H]4COC(C)(C)O4)c3)nc2)c(F)c(OC)c1 [Compound 249] | 27 nM | 30 nM
10 | 9 nM |  |  |  | 6 nM | 6 nM | 14 nM | CNC(=O)c1cc(CCc2cnc(Nc3ccc(N4C[C@@H](C)N[C@@H](C)C4)c(OC)c3)nc2)c(F)c(OC)c1 [Compound 156] | 218 nM | 13 nM
11 | 65 nM |  |  |  | 25 nM | 8 nM | 9 nM | CCN1CCN(c2ccc(Nc3ccc(CCc4cc(OC)cc(C(=O)NOC)c4)cn3)cc2)CC1 [Compound 73] | 70 nM | 493 nM
12 | 6 nM |  |  |  | 9 nM | 9 nM | 20 nM | CCN(CC)CCc1cccc(Nc2ncc(OCc3cc(C(=O)NC)cc(OC)c3F)cn2)c1 [Compound 243] | 69 nM | 15 nM
13 | 6 nM |  |  |  | 5 nM | 7 nM | 10 nM | CNC(=O)c1cc(COc2cnc(Nc3ccc(N4CCN(C)CC4)c(OC)c3)nc2)c(F)c(OC)c1 [Compound 269] | 6 nM | 5 nM
14 | 2 nM |  |  |  | 6 nM | 5 nM | 6 nM | CNC(=O)c1cc(CCc2cnc(Nc3ccc(N4CCN(C)CC4)c(OC)c3)nc2)c(Cl)c(OC)c1 [Compound 177] | 11 nM | 11 nM
15 | 60 nM |  |  |  | 228 nM | 9 nM | 17 nM | CNC(=O)c1cc(COc2cnc(Nc3cccc(-n4nccn4)c3)nc2)c(Cl)c(OC)c1 [Compound 232] | 70 nM | 107 nM
16 | 14 nM |  |  |  | 80 nM | 16 nM | 26 nM | CNC(=O)c1cc(COc2cnc(Nc3cccc(OC)c3)nc2)c(F)c(OC)c1 [Compound 212] | 59 nM | 57 nM
